Patent US12649733B2, “3,6-diamino-pyridazin-3-yl derivatives, pharmaceutical compositions containing them and their uses as pro-apoptotic agents” (LES LABORATOIRES SERVIER, priority 2019, dated 2026)

What was measured:
[1] = target: T1, BCLXL (Homo sapiens, UniProt Q07817, V10N/V9A); experiment: Fluorescence polarisation assay (PUMA-based probe displacement); format: binding; note: 20 nM protein, 10 nM fluorescent probe
[2] = target: T1, BCLXL; experiment: AlphaLISA assay (BIM peptide displacement); format: binding; settings: 20 pM protein, 1 nM peptide
Description: AlphaLISA assay measures an increase in alpha signal upon binding biotinylated GST(1-218)-(FACTOR_XA)-hs ? (2-209)(SEQ ID:02—GST UniProtKB® primary accession number P08515 and BCLXL UniProtKB® primary accession number Q07817-1) coupled to a Streptavidin labeled Alpha donor bead to N-terminally labeled peptide derived from BIM (Fluorescein-betaAla-Ahx-SEQID:05, wherein SEQ ID:05 is […]) coupled to an Anti-FTIC AlphaLISA acceptor bead.
GST(1-218)(FACTOR_XA)-hs ? (2-209) was biotinylated in 50 mM phosphate buffer using a 20 fold excess of EZ Link NHS-LC-Biotin (thermoFisher catalogue number 21336) overnight at 4° C.
The addition of a compound which binds competitively to the same site as the peptide will result in an decrease in the Alpha signal of the available donor bead-protein-peptide-acceptor bead complex due to displacement of the peptide.
An 11-point serial dilution of each compound was prepared in DMSO, the final buffer conditions were 10 mM 4-(2-hydroxyethyl)-1-piperazineethanesulfonic acid [HEPES], 150 mM NaCl, 0.05% Tween 20, pH 7.4 and 4% DMSO. The final protein concentration in the assay was 20 pM with the peptide present at 1 nM). Alpha beads were used at a final concentration of 5 ug/mL. The experiments were incubated for overnight at 23° C. after acceptor bead addition. Finally the donor bead is added and incubated for 2 hours at 23° C. before Alpha signal measured on a Biotek Synergy2 plate reader (Excitation 680 nm, emission 615 nm).

[3] = tested on: H146 cells; experiment: H146 cell viability, MTT assay; format: cell-based; settings: Homo sapiens, NCI-H146, 48 h, 48 h exposure
Outline: (§1)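 Viability read by MTT reduction (OD 540 nm after overnight SDS/HCl lysis) after 48 h compound treatment of cells in RPMI 1640/10% FBS. Triplicates at nine concentrations, 3.16-fold apart; four-parameter curve fitting yields IC50.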

[4] = tested on: MOLT-4 cells; experiment: MOLT-4 cell viability, MTT assay; format: cell-based; settings: Homo sapiens, MOLT-4, 48 h, 48 h exposure
Outline: as §1

T1 sequence (Q07817 with tags, fused parts or gaps V9A/V10N): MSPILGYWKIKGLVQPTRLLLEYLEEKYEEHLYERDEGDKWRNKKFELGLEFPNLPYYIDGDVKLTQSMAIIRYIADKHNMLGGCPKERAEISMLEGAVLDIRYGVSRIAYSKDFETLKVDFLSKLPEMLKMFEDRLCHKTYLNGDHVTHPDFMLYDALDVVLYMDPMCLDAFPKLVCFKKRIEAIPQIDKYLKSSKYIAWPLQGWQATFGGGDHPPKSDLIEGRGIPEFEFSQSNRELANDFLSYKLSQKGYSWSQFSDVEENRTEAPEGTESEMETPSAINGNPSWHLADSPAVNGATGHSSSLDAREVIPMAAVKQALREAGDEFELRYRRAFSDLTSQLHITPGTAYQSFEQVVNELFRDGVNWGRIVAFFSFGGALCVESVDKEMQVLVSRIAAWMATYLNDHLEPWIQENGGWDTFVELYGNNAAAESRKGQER

Row | SMILES | Ki [1] [nM] | IC50 [2] [nM] | IC50 [3] [nM] | IC50 [4] [nM]
1 | Cc1cc(N(C)c2nc(C(=O)O)c(C3CCN(C(=O)Cc4ccccc4)CC3)s2)nnc1Nc1nc2ccccc2s1 [Example 96, 2-({6-[(1,3-Benzothiazol-2-yl)amino]-5-methylpyridazin-3-yl}(methyl)amino)-5-[1-(2-phenylacetyl)piperidin-4-yl]-1,3-thiazole-4-carboxylic acid] | 220 | 270 | – | –
2 | CC(=O)N1CCC(c2sc(N(C)c3cc(C)c(Nc4nc5ccccc5s4)nn3)nc2C(=O)O)CC1 [Example 97, 5-(1-Acetylpiperidin-4-yl)-2-({6-[(1,3-benzothiazol-2-yl)amino]-5-methylpyridazin-3-yl}(methyl)amino)-1,3-thiazole-4-carboxylic acid] | 130 | 210 | – | –
3 | COC(CO)CCCN(c1cc(C)c(Nc2nc3ccccc3s2)nn1)c1nc(C(=O)O)cs1 (stereo not drawn) [Example 133, 2-[[6-(1,3-Benzothiazol-2-ylamino)-5-methyl-pyridazin-3-yl]-(5hydroxy-4-methoxy-pentyl)amino]thiazole-4-carboxylic acid] | – | 8.9 | – | –
4 | Cc1cc(N(C)c2nc(C(=O)O)c(C3CN(C(=O)OC(C)(C)C)C3)s2)nnc1Nc1nc2ccccc2s1 [Example 135, 2-({6-[(1,3-Benzothiazol-2-yl)amino]-5-methylpyridazin-3-yl}(methyl)amino)-5-{1-[(tert-butoxy)carbonyl]azetidin-3-yl}-1,3-thiazole-4-carboxylic acid] | – | 3.9 | 5290 | 3240
5 | Cc1cc(N(C)c2nc(C(=O)O)c(C3CN(C(=O)Cc4ccccc4)C3)s2)nnc1Nc1nc2ccccc2s1 [Example 138, 2-({6-[(1,3-Benzothiazol-2-yl)amino]-5-methylpyridazin-3-yl}(methyl)amino)-5-[1-(2-phenylacetyl)azetidin-3-yl]-1,3-thiazole-4-carboxylic acid] | 29 | 11 | – | –
6 | Cc1cc(N(C)c2nc(C(=O)O)c(C3CNC3)s2)nnc1Nc1nc2ccccc2s1 [Example 139, 5-(Azetidin-3-yl)-2-({6-[(1,3-benzothiazol-2-yl)amino]-5-methylpyridazin-3-yl}(methyl)amino)-1,3-thiazole-4-carboxylic acid] | 640 | 270 | – | –
7 | Cc1cc(N(CCCC(O)CN(C)CCN(C)C)c2nc(C(=O)O)cs2)nnc1Nc1nc2ccccc2s1 (stereo not drawn) [Example 142, 2-[[6-(1,3-Benzothiazol-2-ylamino)-5-methyl-pyridazin-3-yl]-[5-[2-(dimethylamino)ethyl-methyl-amino]-4-hydroxy-pentyl]amino]thiazole-4-carboxylic acid] | 50 | 10 | – | –
8 | Cc1cc(N(CCCC(O)CN(C)C)c2nc(C(=O)O)cs2)nnc1Nc1nc2ccccc2s1 (stereo not drawn) [Example 143, 2-[[6-(1,3-Benzothiazol-2-ylamino)-5-methyl-pyridazin-3-yl]-[5-(dimethylamino)-4-hydroxy-pentyl]amino]thiazole-4-carboxylic acid] | – | 22 | – | –
9 | Cc1cc(N(C)c2nc(C(=O)O)c(C3CN(Cc4ccccc4)C3)s2)nnc1Nc1nc2ccccc2s1 [Example 145, 2-({6-[(1,3-Benzothiazol-2-yl)amino]-5-methylpyridazin-3-yl}(methyl)amino)-5-(1-benzylazetidin-3-yl)-1,3-thiazole-4-carboxylic acid] | 180 | 190 | – | –
10 | Cc1cc(N(C)c2nc(C(=O)O)c(C3CN(c4ccccc4)C3)s2)nnc1Nc1nc2ccccc2s1 [Example 153, 2-({6-[(1,3-Benzothiazol-2-yl)amino]-5-methylpyridazin-3-yl}(methyl)amino)-5-(1-phenylazetidin-3-yl)-1,3-thiazole-4-carboxylic acid] | – | 80 | – | –

Further lines, results first:

Row | Ki [1] [nM] | IC50 [2] [nM] | IC50 [3] [nM] | IC50 [4] [nM] | SMILES
11 | 1.9 | 0.096 | 42 | 90 | Cc1c(Nc2nc(C(=O)O)c(CCCOc3ccc(C#CCN(C)C)cc3F)s2)nnc(Nc2nc3ccccc3s2)c1C [Example 3, 2-({6-[(1,3-Benzothiazol-2-yl)amino]-4,5-dimethylpyridazin-3-yl}amine)-5-(3-{4-[3-(dimethylamino)prop-1-yn-1-yl]-2-fluorophenoxy}propyl)-1,3-thiazole-4-carboxylic acid]
12 | – | 0.028 | 30.9 | 77.5 | CNCC#Cc1ccc(OCCCc2sc(N(CCCC(CO)OC)c3cc(C)c(Nc4nc5ccccc5s4)nn3)nc2C(=O)O)c(F)c1 (stereo not drawn) [Example 112, 2-[[6-(1,3-Benzothiazol-2-ylamino)-5-methyl-pyridazin-3-yl]-(5-hydroxy-4-methoxy-pentyl)amino]-5-[3-[2-fluoro-4-[3-(methylamino)prop-1-ynyl]phenoxy]propyl]thiazole-4-carboxylic acid]
13 | – | 0.028 | 13 | 25.7 | CNCC#Cc1ccc(OCCCc2sc(N(CCCC(O)CN3CCOCC3)c3cc(C)c(Nc4nc5ccccc5s4)nn3)nc2C(=O)O)c(F)c1 (stereo not drawn) [Example 113, 2-[[6-(1,3-Benzothiazol-2-ylamino)-5-methyl-pyridazin-3-yl]-(4-hydroxy-5-morpholino-pentyl)amino]-5-[3-[2-fluoro-4-[3-(methylamino)prop-1-ynyl]phenoxy]propyl]thiazole-4-carboxylic acid]
14 | – | 0.089 | > 150 | > 150 | CNCC#Cc1ccc(OCCCc2sc(N(CC(CO)N3CCOCC3)c3cc(C)c(Nc4nc5ccccc5s4)nn3)nc2C(=O)O)c(F)c1 (stereo not drawn) [Example 115, 2-[[6-(1,3-Benzothiazol-2-ylamino)-5-methyl-pyridazin-3-yl]-(3-hydroxy-2-morpholino-propyl)amino]-5-[3-[2-fluoro-4-[3-(methylamino)prop-1-ynyl]phenoxy]propyl]thiazole-4-carboxylic acid]
15 | – | 0.099 | 280 | 557 | Cc1ccc(S(=O)(=O)N(C)CC#Cc2ccc(OCCCc3sc(N(CCC(O)CO)c4cc(C)c(Nc5nc6ccccc6s5)nn4)nc3C(=O)O)c(F)c2)cc1 (stereo not drawn) [Example 120, 2-[[6-(1,3-Benzothiazol-2-ylamino)-5-methyl-pyridazin-3-yl]-(3,4-dihydroxybutyl)amino]-5-[3-[2-fluoro-4-[3-[methyl(p-tolylsulfonyl)amino]prop-1-ynyl]phenoxy]propyl]thiazole-4-carboxylic acid]
16 | – | 7.7 | – | – | Cc1cc(N(C)c2nc(C(=O)O)c(C3CN(C(=O)c4ccccc4)C3)s2)nnc1Nc1nc2ccccc2s1 [Example 136, 5-(1-Benzoylazetidin-3-yl)-2-({6-[(1,3-benzothiazol-2-yl)amino]-5-methylpyridazin-3-yl}(methyl)amino]-1,3-thiazole-4-carboxylic acid]
17 | – | 0.27 | 320 | 61.4 | Cc1cc(N(C)c2nc(C(=O)O)c(CC(C)(C)COc3ccc(C#CCN(C)C)cc3F)s2)nnc1Nc1nc2ccccc2s1 [Example 137, 2-({6-[(1,3-Benzothiazol-2-yl)amino]-5-methylpyridazin-3-yl}(methyl)amino)-5-(3-{4-[3-(dimethylamino)prop-1-yn-1-yl]-2-fluorophenoxy}-2,2-dimethylpropyl)-1,3-thiazole-4-carboxylic acid]
18 | < 1 | 0.005 | – | 194 | Cc1cc(N(CCCCO)c2nc(C(=O)O)c(CCCOc3ccc(C#CCN(C)CCCS(=O)(=O)O)cc3F)s2)nnc1Nc1nc2ccccc2s1 [Example 151, 2-[[6-(1,3-Benzothiazol-2-ylamino)-5-methyl-pyridazin-3-yl]-(4-hydroxybutyl)amino]-5-[3-[2-fluoro-4-[3-[methyl(3-sulfopropyl)amino]prop-1-ynyl]phenoxy]propyl]thiazole-4-carboxylic acid]
19 | – | 2.3 | – | – | CC(=O)N1CC(c2sc(N(C)c3cc(C)c(Nc4nc5ccccc5s4)nn3)nc2C(=O)O)C1 [Example 152, 5-(1-Acetylazetidin-3-yl)-2-({6-[(1,3-benzothiazol-2-yl)amino]-5-methylpyridazin-3-yl}(methyl)amino)-1,3-thiazole-4-carboxylic acid]
20 | – | 1.9 | 6590 | 3170 | C/C(=C\c1sc(N(C)c2cc(C)c(Nc3nc4ccccc4s3)nn2)nc1C(=O)O)COc1ccccc1 [Example 162, 2-({6-[(1,3-Benzothiazol-2-yl)amino]-5-methylpyridazin-3-yl}(methyl)amino)-5-[(1E)-2-methyl-3-phenoxyprop-1-en-1-yl]-1,3-thiazole-4-carboxylic acid]
